Results on twelve compounds are retold here after ChEMBL document CHEMBL5226370, “Selective Inhibition of Organic Cation Transporter 1 by Benzoylpaeoniflorin Attenuates Hepatic Lipid Accumulation through AMPK Activation” (J Nat Prod, 2023).

Data set [1] has as its system HEK293. Put plainly: Cytotoxicity against HEK293 cells expressing OCT2 assessed as reduction in cell viability at 250 uM incubated for 12 hrs by resazurin dye based assay. Type of data set: toxicity. The following applies: human, hek293, 12 h.
The subject of data set [2] is HEK293. The experiment in a line: Cytotoxicity against HEK293 cells harboring empty vector assessed as reduction in cell viability at 250 uM incubated for 12 hrs by resazurin dye based assay. Type of data set: toxicity. The note with it: human, hek293, 12 h.
Data set [3] addresses T1, Solute carrier family 22 member 2 (Homo sapiens, UniProt O15244).
T1 sequence (O15244 whole entry): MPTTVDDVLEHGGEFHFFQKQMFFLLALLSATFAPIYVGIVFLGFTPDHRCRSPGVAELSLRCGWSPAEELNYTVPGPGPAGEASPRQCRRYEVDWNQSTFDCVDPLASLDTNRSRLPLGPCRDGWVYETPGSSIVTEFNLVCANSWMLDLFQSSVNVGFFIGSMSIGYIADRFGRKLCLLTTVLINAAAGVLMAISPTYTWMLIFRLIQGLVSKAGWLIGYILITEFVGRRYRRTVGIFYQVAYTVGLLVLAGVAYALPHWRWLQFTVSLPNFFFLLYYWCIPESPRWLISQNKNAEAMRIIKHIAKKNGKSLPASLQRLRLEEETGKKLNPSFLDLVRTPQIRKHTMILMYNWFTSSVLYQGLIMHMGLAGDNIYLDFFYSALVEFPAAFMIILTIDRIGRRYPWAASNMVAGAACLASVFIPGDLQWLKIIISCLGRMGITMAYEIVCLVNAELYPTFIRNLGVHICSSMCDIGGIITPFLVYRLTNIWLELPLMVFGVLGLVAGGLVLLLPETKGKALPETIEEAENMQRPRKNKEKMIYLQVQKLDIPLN
Put plainly: Inhibition of OCT2(unknown origin)-mediated ASP+ uptake in HEK293 cells expressing OCT2 using ASP+ as substrate incubated for 5 mins. Type of data set: cell-based.

Data set [4] has as its target T2, Solute carrier family 22 member 1 (Homo sapiens, UniProt O15245).
T2 sequence (O15245 whole entry): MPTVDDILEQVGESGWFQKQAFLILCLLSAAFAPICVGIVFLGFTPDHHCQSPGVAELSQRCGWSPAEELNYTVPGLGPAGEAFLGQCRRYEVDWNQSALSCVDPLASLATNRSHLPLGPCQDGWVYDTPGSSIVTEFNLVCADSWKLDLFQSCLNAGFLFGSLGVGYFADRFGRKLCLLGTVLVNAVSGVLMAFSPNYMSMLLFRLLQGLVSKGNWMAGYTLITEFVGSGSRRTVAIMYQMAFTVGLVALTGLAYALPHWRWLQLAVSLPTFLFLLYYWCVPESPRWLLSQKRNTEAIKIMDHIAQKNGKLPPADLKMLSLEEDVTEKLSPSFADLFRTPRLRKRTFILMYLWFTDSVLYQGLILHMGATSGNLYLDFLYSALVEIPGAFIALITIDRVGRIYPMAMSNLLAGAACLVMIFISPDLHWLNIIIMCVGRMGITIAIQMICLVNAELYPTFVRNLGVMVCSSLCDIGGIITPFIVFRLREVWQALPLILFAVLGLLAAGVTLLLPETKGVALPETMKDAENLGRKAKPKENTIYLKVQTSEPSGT
The experiment in a line: Inhibition of OCT1(unknown origin)-mediated ASP+ uptake in HEK293 cells expressing OCT1 using ASP+ as substrate incubated for 5 mins. Type of data set: cell-based.

A further data set has as its target T3, OCT1 (SLC22A1) (Homo sapiens, UniProt O15245).
T3 sequence (O15245 whole entry): T2 sequence (O15245 whole entry)
Put plainly: Inhibition of OCT1(unknown origin)-mediated ASP+ uptake in HEK293 cells expressing OCT1 using ASP+ as substrate at 50 uM incubated for 5 mins by fluorescence based microplate reader analysis relative to control. The class given is cell-based. The following applies: HEK293 cells expressing OCT1, probe ASP+.

Data set [5] concerns HEK293. Put plainly: Cytotoxicity against HEK293 cells expressing OCT1 assessed as reduction in cell viability at 250 uM incubated for 12 hrs by resazurin dye based assay. Type of data set: toxicity. The following applies: human, hek293, 12 h.
Data set [6] relates to HEK293. The experiment in a line: Selectivity index, ratio of IC50 for inhibition of OCT2(unknown origin)-mediated ASP+ uptake in HEK293 cells expressing OCT2 to IC50 for inhibition of OCT1(unknown origin)-mediated ASP+ uptake in HEK293 cells expressing OCT1. Type of data set: cell-based. The note with it: Homo sapiens.
The nature of data set [7]: Activation of AMPK signalling pathway in human L02 cells expressing OCT1 assessed as decrease in FASN mRNA expression at 2.5 to 10 uM incubated for 1 to 24 hrs by qRT-PCR analysis. The following applies: filed as activator, dose 2.5-10 µM, time 1-24 hrs. Type of data set: cell-based.
Data set [8] can be described thus: Activation of AMPK signalling pathway in human HepG2 cells expressing OCT1 assessed as decrease in ACC mRNA expression at 2.5 to 10 uM incubated for 1 to 24 hrs by qRT-PCR analysis. The following applies: filed as activator, dose 2.5-10 µM, time 1-24 hrs. The class given is cell-based.
Data set [9] concerns L02. Put plainly: Inhibition of FFA-induced lipid accumulation in human L02 cells expressing OCT1 at 10 uM incubated for 24 hrs by Oil Red O staining based microscopic analysis. Type of data set: functional, cell-based.
The test system of data set [10] is L02. The experiment in a line: Inhibition of FFA-induced lipid accumulation in human L02 cells expressing OCT1 assessed as decrease in triglyceride level at 10 uM incubated for 24 hrs. Type of data set: functional, cell-based.
A short description of data set [11]: Activation of AMPK signalling pathway in human HepG2 cells expressing OCT1 assessed as decrease in FASN mRNA expression at 2.5 to 10 uM incubated for 1 to 24 hrs by qRT-PCR analysis. The note with it: filed as activator, dose 2.5-10 µM, time 1-24 hrs. Type of data set: cell-based.
Data set [12] has as its system HepG2. The experiment in a line: Inhibition of FFA-induced lipid accumulation in human HepG2 cells expressing OCT1 at 10 uM incubated for 24 hrs by Oil Red O staining based microscopic analysis. Type of data set: functional, cell-based.
The nature of data set [13]: Activation of AMPK signalling pathway in human HepG2 cells expressing OCT1 assessed as increase in AMPK phosphorylation at 2.5 to 10 uM incubated for 1 to 24 hrs by Western blot analysis. Type of data set: cell-based. The following applies: filed as activator, dose 2.5-10 µM, time 1-24 hrs.
Data set [14] is described as follows: Activation of AMPK signalling pathway in human L02 cells expressing OCT1 assessed as decrease in ACC mRNA expression at 2.5 to 10 uM incubated for 1 to 24 hrs by qRT-PCR analysis. The class given is cell-based. The following applies: filed as activator, dose 2.5-10 µM, time 1-24 hrs.
Data set [15] in a line: Activation of AMPK signalling pathway in human L02 cells expressing OCT1 assessed as increase in AMPK phosphorylation at 2.5 to 10 uM incubated for 1 to 24 hrs by Western blot analysis. The class given is cell-based. The note with it: filed as activator, dose 2.5-10 µM, time 1-24 hrs.
Data set [16] has as its system HepG2. The experiment in a line: Inhibition of FFA-induced lipid accumulation in human HepG2 cells expressing OCT1 assessed as decrease in triglyceride level at 10 uM incubated for 24 hrs. Type of data set: functional, cell-based.

Activity calls are given as the source filed them. No cut-off for these calls is given here. Where only a bound is given, the exact number is not on record here.

For `C[C@H]1O[C@@H](O[C@H]2CC[C@@]3(C)[C@@H](CC[C@]4(C)[C@@H]3C=CC3=C5CC(C)(C)CC[C@]5(CO)[C@@H](O)C[C@]34C)[C@]2(C)CO)[C@H](O)[C@@H](O[C@@H]2O[C@H](CO)[C@@H](O)[C@H](O)[C@H]2O)[C@H]1O`, the Activity result in the data set on HEK293 [1], in the data set with HEK293 [2] and in the data set on HEK293 [5] was “Non-Toxic” in each case. Further, the 50% inhibitory concentration (IC50) in data set [3] came to 69.5 µM; in data set [4], 35.2 µM. On OCT1 (SLC22A1), this compound displayed an inhibition at 5 min, 50 µM greater than 50%.

For `C/C=C1\C2CC(=O)OC[C@@H](c3ccc(O)c(O)c3)OC[C@H]3O[C@@H](O[C@@H]1OC=C2C(=O)OC)[C@H](O)[C@@H](O)[C@@H]3O`, the Activity entry in the data set on HEK293 [1], in the data set on HEK293 [2] and in the data set on HEK293 [5] was “Non-Toxic” in each case. Also, the IC50 was determined as 1270 µM in [3] and 47.3 µM in data set [4]. Also, the inhibition at 5 min, 50 µM against OCT1 (SLC22A1) was greater than 50%.

Regarding `O=c1cc(-c2ccc(O)cc2)oc2cc(O)cc(O)c12` [APIGENIN], the Activity entry with HEK293 [1], in the data set on HEK293 [2] and with HEK293 [5] was “Non-Toxic” in each case. For the same compound, the IC50 in [3] came out at 30.9 µM; in [4], 38.9 µM. For the same compound, the inhibition at 5 min, 50 µM against OCT1 (SLC22A1) is greater than 50%.

Regarding `CC(C)=CCc1c(O)cc(O)c2c(=O)c(O[C@@H]3O[C@@H](C)[C@H](O)[C@@H](O)[C@H]3O[C@@H]3O[C@H](CO)[C@@H](O)[C@H](O)[C@H]3O)c(-c3ccc(O)cc3)oc12`, the Activity entry in the data set with HEK293 [1], in the data set with HEK293 [2] and with HEK293 [5] was “Non-Toxic” in each case. In addition, the IC50 in data set [3] was determined as 56.5 µM; in data set [4] it was 11.2 µM. At OCT1 (SLC22A1), this compound gave an inhibition at 5 min, 50 µM greater than 50%.

On to `COc1cc(O)c2c(c1)oc(=O)c1c3cc(O)c(O)cc3oc21` [WEDELOLACTONE], for which the Activity result with HEK293 [1], in the data set with HEK293 [2] and in the data set with HEK293 [5] was “Non-Toxic” in each case. The values for the IC50 in data set [3] and in data set [4] were 17.3 µM and 38.4 µM, respectively. The same compound gave an inhibition at 5 min, 50 µM against OCT1 (SLC22A1) greater than 50%.

On to `CNC(=C[N+](=O)[O-])NCCSCc1ccc(CN(C)C)o1` [RANITIDINE], for which the values for the half-maximal inhibitory concentration (IC50) in [3] and in [4] were 1620 µM and 28 µM, respectively. In the data set on HEK293 [6], the Ratio IC50 turned out to be 39.6.

`COc1ccc(-c2oc3cc(OC)cc(OC)c3c(=O)c2OC)cc1` [TETRAMETHYLKAEMPFEROL]: the Activity result with HEK293 [1], in the data set on HEK293 [2] and in the data set on HEK293 [5] was “Non-Toxic” each time. Further, the IC50 came out at 39.5 µM in data set [3] and 47 µM in data set [4]. This compound came in with an inhibition at 5 min, 50 µM at OCT1 (SLC22A1) greater than 50%.

Turning to `O=c1cc(-c2ccc(O)c(O)c2)oc2cc(O)cc(O)c12` [LUTEOLIN], the Activity result in the data set with HEK293 [1], with HEK293 [2] and in the data set on HEK293 [5] was “Non-Toxic” each time. Further, the IC50 in [3] is 41 µM; in data set [4], 46.1 µM. This compound also showed an inhibition at 5 min, 50 µM against OCT1 (SLC22A1) greater than 50%.

In the case of `C[C@@H]1CC[C@@]2(OC1)O[C@H]1C[C@H]3[C@@H]4CC=C5C[C@@H](O)C[C@@H](O[C@@H]6O[C@H](C)[C@H](O)[C@H](O[C@@H]7OC[C@@H](O)[C@H](O)[C@H]7O)[C@H]6O[C@@H]6O[C@@H](C)[C@H](O)[C@@H](O)[C@H]6O)[C@]5(C)[C@H]4CC[C@]3(C)[C@H]1[C@@H]2C`, the Activity result in the data set with HEK293 [1], in the data set on HEK293 [2] and in the data set on HEK293 [5] was “Non-Toxic” each time. Besides, the IC50 in [3] was 19.1 µM; in [4], 41.3 µM. Besides, at OCT1 (SLC22A1), the inhibition at 5 min, 50 µM is greater than 50%.

Regarding `CC(C)=CCc1cc(-c2cc(=O)c3c(O)cc(O)c(CC=C(C)C)c3o2)cc(O)c1O`, the Activity result with HEK293 [1], in the data set with HEK293 [2] and with HEK293 [5] was “Non-Toxic” each time. Further, the IC50 in [3] was found to be 33.1 µM; in data set [4], 40.2 µM. On OCT1 (SLC22A1), this compound registered an inhibition at 5 min, 50 µM greater than 50%.

Turning to `C[C@@]12C[C@@]3(O)O[C@@H](O1)[C@]1(COC(=O)c4ccccc4)[C@H]3C[C@@]12O[C@@H]1O[C@H](COC(=O)c2ccccc2)[C@@H](O)[C@H](O)[C@H]1O`, the result in [7], in data set [8], in data set [11], in data set [13], in data set [14] and in data set [15] was Active. For the same compound, the inhibition entry in the data set on L02 [9], with L02 [10], in the data set with HepG2 [12] and with HepG2 [16] was “Active” throughout. Also, the Activity result in the data set with HEK293 [1], in the data set on HEK293 [2] and with HEK293 [5] was “Non-Toxic” in each case. The values for the concentration for half-maximal inhibition (IC50) in data set [3] and in data set [4] were 4120 µM and 3.46 µM, respectively. For the same compound, the inhibition at 5 min, 50 µM against OCT1 (SLC22A1) is greater than 50%. In addition, the Ratio IC50 in the data set with HEK293 [6] is greater than 1000.

As to `NC12CC3CC(CC(C3)C1)C2` [AMANTADINE], the half-maximal inhibitory concentration (IC50) in [3] was 45.9 µM; in data set [4], 39.6 µM. For the same compound, the Ratio IC50 in the data set with HEK293 [6] was 1.16.
